Experiments:
hERG channel = molecular target: T1, hERG channel (Homo sapiens, UniProt Q12809); test: hERG electrophysiology, automated whole-cell patch clamp (Patchliner); type: cell-based; conditions: CHO-K1 cells stably expressing hERG; whole-cell current, Hill fit
T1 construct: expressed in transfected cells
Method: Example 10. Evaluation of hERG Activities
This assay is used to evaluate the disclosed compounds' inhibition activities against the hERG channel.
CHO-K1 cells stably expressing hERG were grown in Ham's F-12 Medium with Glutamine containing 10% heat-inactivated FBS, 1% Penicillin/Streptomycin, Hygromycin (100 μg/ml) and G418 (100 μg/ml). Cells were grown in culture flasks at 37° C. in a 5% CO2-humidified incubator.
The cells were bathed in an extracellular solution containing 140 mM NaCl, 4 mM KCl, 2 mM CaCl2), 1 mM MgCl2, 5 mM Glucose, 10 mM HEPES; pH adjusted to 7.4 with NaOH; 295-305 mOsm. The internal solution contained 50 mM KCl, 10 mM NaCl, 60 mM KF, 20 mM EGTA, 10 mM HEPES; pH adjusted to 7.2 with KOH; 285 mOsm. All compounds were dissolved in DMSO at 30 mM. Compound stock solutions were freshly diluted with external solution to concentrations of 30 nM, 100 nM, 300 nM, 1 μM, 3 μM, 10 μM, 30 μM and 100 μM. The highest content of DMSO (0.3%) was present in 100 μM.
The voltage protocol (see Table B) was designed to simulate voltage changes during a cardiac action potential with a 300 ms depolarization to +20 mV (analogous to the plateau phase of the cardiac action potential), a repolarization for 300 ms to −50 mV (inducing a tail current) and a final step to the holding potential of −80 mV. The pulse frequency was 0.3 Hz. Control (compound-free) and compound pulse trains for each compound concentration applied contained 70 pulses.
Whole-cell current recordings and compound application were enabled by means of an automated patch clamp platform Patchliner (Nanion). EPC 10 patch clamp amplifier (HEKA) along with Patchmaster software (HEKA Elektronik Dr. Schulze GmbH) was used for data acquisition. Data were sampled at 10 kHz without filtering. Increasing compound concentrations were applied consecutively to the same cell without washouts in between.
AUC and PEAK values were obtained with Patchmaster (HEKA Elektronik Dr. Schulze GmbH). To determine IC50 the last single pulse in the pulse train corresponding to a given compound concentration was used. Obtained AUC and PEAK values in the presence of compound were normalized to control values in the absence of compound. Using Origin (OridinLab), IC50 was derived from data fit to Hill equation: Icompound/Icontrol=(100−A)/(1+([compound]/IC50)nH)+A, where IC50 is the concentration at which current inhibition is half-maximal, [compound] is the applied compound concentration, A is the fraction of current that is not blocked and nH is the Hill coefficient.

Kv1.3 potassium channel = molecular target: T2, Kv1.3 potassium channel (Homo sapiens, UniProt P22001); test: Kv1.3 potassium channel blocker activity, automated whole-cell patch clamp (Patchliner); type: cell-based; conditions: CHO-K1 cells stably expressing Kv1.3; whole-cell current, Hill fit
T2 construct: expressed in transfected cells
Outline: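 Stably transfected CHO-K1 cells, whole-cell automated patch clamp: 100 ms pulses from −90 to +40 mV at 0.1 Hz, 20-pulse trains, cumulative concentrations 30 nM–100 μM without washout (≤0.3% DMSO), external pH 7.4. IC50 from Hill fit of last-pulse peak/AUC normalized to compound-free control.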

T2 sequence (P22001 whole entry): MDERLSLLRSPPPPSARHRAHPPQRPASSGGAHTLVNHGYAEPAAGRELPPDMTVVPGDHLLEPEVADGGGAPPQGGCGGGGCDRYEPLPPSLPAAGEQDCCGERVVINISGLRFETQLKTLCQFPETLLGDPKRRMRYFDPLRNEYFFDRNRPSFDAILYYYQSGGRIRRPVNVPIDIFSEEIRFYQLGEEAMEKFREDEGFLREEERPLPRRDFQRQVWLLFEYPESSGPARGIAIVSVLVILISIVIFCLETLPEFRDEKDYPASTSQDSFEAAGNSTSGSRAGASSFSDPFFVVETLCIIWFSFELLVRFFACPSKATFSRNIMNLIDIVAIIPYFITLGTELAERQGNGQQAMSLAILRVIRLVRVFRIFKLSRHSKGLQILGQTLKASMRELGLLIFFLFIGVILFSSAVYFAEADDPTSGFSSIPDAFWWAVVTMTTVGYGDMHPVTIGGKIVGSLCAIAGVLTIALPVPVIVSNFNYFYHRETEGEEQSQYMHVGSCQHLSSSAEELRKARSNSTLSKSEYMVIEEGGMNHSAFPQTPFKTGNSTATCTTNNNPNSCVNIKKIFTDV
T1 sequence (Q12809 whole entry): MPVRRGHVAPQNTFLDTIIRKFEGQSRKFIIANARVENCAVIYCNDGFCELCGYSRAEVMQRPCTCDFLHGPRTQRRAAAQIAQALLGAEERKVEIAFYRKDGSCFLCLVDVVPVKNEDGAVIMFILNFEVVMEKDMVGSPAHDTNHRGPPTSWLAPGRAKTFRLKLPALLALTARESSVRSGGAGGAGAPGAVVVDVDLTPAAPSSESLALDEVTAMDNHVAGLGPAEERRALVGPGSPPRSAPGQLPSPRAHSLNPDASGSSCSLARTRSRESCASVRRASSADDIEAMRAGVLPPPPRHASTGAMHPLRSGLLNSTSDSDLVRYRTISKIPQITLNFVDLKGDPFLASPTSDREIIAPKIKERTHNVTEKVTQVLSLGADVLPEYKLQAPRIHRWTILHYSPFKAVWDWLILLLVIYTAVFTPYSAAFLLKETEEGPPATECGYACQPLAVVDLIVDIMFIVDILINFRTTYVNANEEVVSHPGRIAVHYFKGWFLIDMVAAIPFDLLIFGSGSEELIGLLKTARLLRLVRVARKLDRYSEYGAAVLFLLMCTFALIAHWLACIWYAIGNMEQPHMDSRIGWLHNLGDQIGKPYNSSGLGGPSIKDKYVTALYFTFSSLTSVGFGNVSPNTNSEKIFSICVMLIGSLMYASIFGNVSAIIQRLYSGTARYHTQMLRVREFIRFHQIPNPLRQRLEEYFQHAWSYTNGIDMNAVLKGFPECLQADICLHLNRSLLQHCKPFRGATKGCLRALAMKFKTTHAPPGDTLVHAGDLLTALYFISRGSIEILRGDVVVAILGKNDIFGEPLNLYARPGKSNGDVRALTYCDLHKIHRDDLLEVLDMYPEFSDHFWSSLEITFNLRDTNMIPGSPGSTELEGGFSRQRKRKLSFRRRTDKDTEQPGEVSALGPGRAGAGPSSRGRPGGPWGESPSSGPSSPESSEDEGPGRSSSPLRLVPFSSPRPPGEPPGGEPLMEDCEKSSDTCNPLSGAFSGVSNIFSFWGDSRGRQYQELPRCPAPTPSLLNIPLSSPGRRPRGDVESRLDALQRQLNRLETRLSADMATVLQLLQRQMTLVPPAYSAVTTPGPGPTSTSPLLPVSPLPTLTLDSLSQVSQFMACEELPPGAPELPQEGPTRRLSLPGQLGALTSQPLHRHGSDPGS

| SMILES | IC50 (hERG channel) [µM] | IC50 (Kv1.3 potassium channel) [µM] |
| --- | --- | --- |
| CN1CC(=O)N2CCC(c3c(O)ccc(Cl)c3Cl)CC2C1=O (stereo not drawn) [Compound 36, 8-(2,3-dichloro-6-hydroxyphenyl)-2-methyl-octahydro-1H-pyrido[1,2-a]pyrazine-1,4-dione] | > 30 | < 1 |
| O=C1NCC(=O)N2CC[C@@H](c3c(O)ccc(Cl)c3Cl)C[C@@H]12 [Compound 41, (8R,9aS)-8-(2,3-dichloro-6-hydroxyphenyl)hexahydro-4H-pyrido[1,2-a]pyrazine-1,4(6H)-dione] | > 30 | < 1 |
| O=C1[C@@H]2C[C@H](c3cc(Cl)c(Cl)cc3O)CCN2C(=O)CN1C1CNC1 [Compound 50, (8R,9aS)-2-(azetidin-3-yl)-8-(4,5-dichloro-2-hydroxyphenyl)hexahydro-4H-pyrido[1,2-a]pyrazine-1,4(6H)-dione] | > 30 | < 1 |
| O=C1[C@@H]2C[C@H](c3c(O)ccc(Cl)c3Cl)CCN2C(=O)[C@H]2C[C@@H](O)CN12 [Compound 52, (2R,5aS,7R,11aR)-7-(2,3-dichloro-6-hydroxyphenyl)-2-hydroxyhexahydro-1H-pyrido[1,2-a]pyrrolo[1,2-d]pyrazine-5,11(5aH,11aH)-dione] | > 30 | < 1 |
| O=C1N[C@@H](CO)C(=O)N2CC[C@@H](c3c(O)ccc(Cl)c3Cl)C[C@@H]12 [Compound 53, (3S,8R,9aS)-8-(2,3-dichloro-6-hydroxyphenyl)-3-(hydroxymethyl)hexahydro-4H-pyrido[1,2-a]pyrazine-1,4(6H)-dione] | > 30 | < 1 |
| C[C@H]1NC(=O)[C@@H]2C[C@H](c3c(O)ccc(Cl)c3Cl)CCN2C1=O [Compound 58, (3R,8R,9aS)-8-(2,3-dichloro-6-hydroxyphenyl)-3-methyl-hexahydro-2H-pyrido[1,2-a]pyrazine-1,4-dione] | > 30 | < 1 |
| O=C1N[C@H](CO)C(=O)N2CC[C@@H](c3c(O)cc(Cl)c(Cl)c3Cl)C[C@@H]12 [Compound 60, (8R,9aS)-3-((3R)-hydroxymethyl)-8-(2,3,4-trichloro-6-hydroxyphenyl)-hexahydro-2H-pyrido[1,2-a]pyrazine-1,4-dione] | > 30 | < 1 |
| O=C1[C@H]2C[C@@H](c3c(O)ccc(Cl)c3Cl)CCN2C(=O)CN1C1CNC1 [Compound 64, (8S,9aR)-2-(azetidin-3-yl)-8-(2,3-dichloro-6-hydroxyphenyl)-octahydro-1H-pyrido[1,2-a]pyrazine-1,4-dione] | > 30 | < 1 |
| NN1C(=O)[C@@H]2C[C@H](c3c(O)ccc(Cl)c3Cl)CCN2C1=O [Compound 68, (7R,8aS)-2-amino-7-(2,3-dichloro-6-hydroxyphenyl)tetrahydro-imidazo[1,5-a]pyridine-1,3(2H,5H)-dione] | > 30 | < 1 |
